Values of other authors, collected in patent US8697633B2, “Dissolution of arterial plaque” (AtheraNova Operations, Inc., priority 2005, dated 2014).

Experiments:
atherosclerotic plaque [1] = conditions: dietary HDCA, relative to mice not provided HDCA
atherosclerotic plaque [2] = conditions: 40 mg/day

C[C@H](CCC(=O)O)[C@H]1CC[C@H]2[C@@H]3C[C@H](O)[C@@H]4C[C@H](O)CC[C@]4(C)[C@H]3CC[C@]12C [HDCA, hyodeoxycholic acid]
rate of formation of atherosclerotic plaque (atherosclerotic plaque [1]): reduced rate of formation of atherosclerotic plaque

CC(C)c1nc(N(C)S(C)(=O)=O)nc(-c2ccc(F)cc2)c1/C=C/[C@@H](O)C[C@@H](O)CC(=O)O [rosuvastatin]
modulation of LDL, HDL, and triglyceride levels (atherosclerotic plaque [2]): particularly effective | reduction of normalized total atheroma volume (atherosclerotic plaque [2]; after 2 years, SD=11.1): 6.7% | reduction of plaque volume in the most diseased segments of vessels (atherosclerotic plaque [2]; after 2 years, SD=13.7): 8.5%
